pIC50: −log10 of the molar value.
How the values were obtained:
[1] = target: T1, Dual specificity protein kinase CLK3 (Homo sapiens, UniProt P49761)
Description: Inhibition of human CLK3 assessed as remaining activity by eurofins-cerep kinase profiler analysis

[2] = target: T2, AP2-associated protein kinase 1 (Homo sapiens, UniProt Q2M2I8); details: dose 10.0 µM
[3] = target: BMP-2-inducible protein kinase (Homo sapiens) (UniProt Q9NSY1); details: dose 10.0 µM
[4] = target: Calcium/calmodulin-dependent protein kinase kinase 2 (Homo sapiens) (UniProt Q96RR4); details: dose 10.0 µM
[5] = target: Dual specificity protein kinase CLK2 (Homo sapiens, UniProt P49760)
Description: Inhibition of human CLK2 assessed as remaining activity by eurofins-cerep kinase profiler analysis

[6] = target: Death-associated protein kinase 3 (Homo sapiens) (UniProt O43293); details: dose 10.0 µM
[7] = target: Dual specificity protein kinase CLK1 (Homo sapiens, UniProt P49759); details: dose 10.0 µM
[8] = target: Dual specificity tyrosine-phosphorylation-regulated kinase 2 (Homo sapiens) (UniProt Q92630); details: dose 10.0 µM
[9] = target: T1, Dual specificity protein kinase CLK3; details: dose 10.0 µM
[10] = target: Serine/threonine-protein kinase TAO2 (Homo sapiens, UniProt Q9UL54)
Description: Inhibition of human TAO2 assessed as remaining activity by eurofins-cerep kinase profiler analysis

Myotonin-protein kinase = Myotonin-protein kinase (Homo sapiens, UniProt Q09013)
Description: Inhibition of human DMPK assessed as remaining activity by eurofins-cerep kinase profiler analysis

[11] = target: Cyclin-dependent kinase-like 2 (Homo sapiens, UniProt Q92772)
Description: Inhibition of human CDKL2 assessed as remaining activity by eurofins-cerep kinase profiler analysis

[12] = target: Serine/threonine-protein kinase haspin (Homo sapiens, UniProt Q8TF76)
Description: Inhibition of human HASPIN assessed as remaining activity by eurofins-cerep kinase profiler analysis

[13] = target: Dual specificity protein kinase CLK4 (Homo sapiens, UniProt Q9HAZ1)
[14] = target: Homeodomain-interacting protein kinase 3 (Homo sapiens, UniProt Q9H422)
Description: Inhibition of human HIPK3 assessed as remaining activity by eurofins-cerep kinase profiler analysis

[15] = target: Myotonin-protein kinase (Homo sapiens) (UniProt Q09013); details: dose 10.0 µM
[16] = target: T3, Homeodomain-interacting protein kinase 2 (Homo sapiens, UniProt Q9H2X6); details: dose 10.0 µM
Tribbles homolog 2 = Tribbles homolog 2 (Homo sapiens, UniProt Q92519)
Description: Inhibition of human TRB2 assessed as remaining activity by eurofins-cerep kinase profiler analysis

[17] = target: Serine/threonine-protein kinase TAO1 (Homo sapiens, UniProt Q7L7X3)
Description: Inhibition of human TAO1 assessed as remaining activity by eurofins-cerep kinase profiler analysis

[18] = target: Serine/threonine-protein kinase TAO3 (Homo sapiens, UniProt Q9H2K8)
Description: Inhibition of human TAO3 assessed as remaining activity by eurofins-cerep kinase profiler analysis

[19] = target: T2, AP2-associated protein kinase 1
Description: Inhibition of human AAK1 assessed as remaining activity by eurofins-cerep kinase profiler analysis

[20] = target: T3, Homeodomain-interacting protein kinase 2
Description: Inhibition of human HIPK2 assessed as remaining activity by eurofins-cerep kinase profiler analysis

[21] = target: Glycogen synthase kinase-3 beta (Homo sapiens) (UniProt P49841); details: dose 10.0 µM
[22] = target: Cyclin-dependent kinase-like 5 (Homo sapiens, UniProt O76039)
Description: Inhibition of human CDKL5 assessed as remaining activity by eurofins-cerep kinase profiler analysis

[23] = target: T4, Dual specificity tyrosine-phosphorylation-regulated kinase 2 (Homo sapiens, UniProt Q92630)
T4 sequence (Q92630 whole entry): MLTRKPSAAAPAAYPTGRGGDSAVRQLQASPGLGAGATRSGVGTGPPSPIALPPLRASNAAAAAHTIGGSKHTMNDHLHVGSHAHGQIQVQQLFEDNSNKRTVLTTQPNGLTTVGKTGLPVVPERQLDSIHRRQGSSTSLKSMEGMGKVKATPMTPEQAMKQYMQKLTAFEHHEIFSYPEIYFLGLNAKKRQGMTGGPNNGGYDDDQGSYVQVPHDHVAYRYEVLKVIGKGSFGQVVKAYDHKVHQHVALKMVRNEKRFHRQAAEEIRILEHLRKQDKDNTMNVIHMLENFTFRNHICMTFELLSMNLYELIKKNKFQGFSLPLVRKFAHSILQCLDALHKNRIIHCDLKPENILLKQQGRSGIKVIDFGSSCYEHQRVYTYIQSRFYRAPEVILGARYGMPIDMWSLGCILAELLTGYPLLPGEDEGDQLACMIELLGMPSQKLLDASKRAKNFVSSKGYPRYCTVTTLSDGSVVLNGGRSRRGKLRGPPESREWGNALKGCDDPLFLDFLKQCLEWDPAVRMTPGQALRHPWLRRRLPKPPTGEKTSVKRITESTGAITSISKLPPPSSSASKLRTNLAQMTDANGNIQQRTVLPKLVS
Description: Inhibition of human DYRK2 assessed as remaining activity by eurofins-cerep kinase profiler analysis

[24] = target: Cyclin-dependent kinase-like 4 (Homo sapiens, UniProt Q5MAI5)
Description: Inhibition of human CDKL4 assessed as remaining activity by eurofins-cerep kinase profiler analysis

[25] = target: Serine/threonine-protein kinase PLK4 (Homo sapiens) (UniProt O00444); details: dose 10.0 µM
[26] = target: Homeodomain-interacting protein kinase 1 (Homo sapiens, UniProt Q86Z02)
Description: Inhibition of human HIPK1 assessed as remaining activity by eurofins-cerep kinase profiler analysis

[27] = target: Cyclin-dependent kinase-like 3 (Homo sapiens, UniProt Q8IVW4)
Description: Inhibition of human CDKL3 assessed as remaining activity by eurofins-cerep kinase profiler analysis

[28] = target: Aurora kinase A (Homo sapiens) (UniProt O14965); details: dose 10.0 µM
[29] = target: Cyclin-G-associated kinase (Homo sapiens) (UniProt O14976); details: dose 10.0 µM
Cyclin-G-associated kinase (Homo sapiens), sequence (O14976 whole entry): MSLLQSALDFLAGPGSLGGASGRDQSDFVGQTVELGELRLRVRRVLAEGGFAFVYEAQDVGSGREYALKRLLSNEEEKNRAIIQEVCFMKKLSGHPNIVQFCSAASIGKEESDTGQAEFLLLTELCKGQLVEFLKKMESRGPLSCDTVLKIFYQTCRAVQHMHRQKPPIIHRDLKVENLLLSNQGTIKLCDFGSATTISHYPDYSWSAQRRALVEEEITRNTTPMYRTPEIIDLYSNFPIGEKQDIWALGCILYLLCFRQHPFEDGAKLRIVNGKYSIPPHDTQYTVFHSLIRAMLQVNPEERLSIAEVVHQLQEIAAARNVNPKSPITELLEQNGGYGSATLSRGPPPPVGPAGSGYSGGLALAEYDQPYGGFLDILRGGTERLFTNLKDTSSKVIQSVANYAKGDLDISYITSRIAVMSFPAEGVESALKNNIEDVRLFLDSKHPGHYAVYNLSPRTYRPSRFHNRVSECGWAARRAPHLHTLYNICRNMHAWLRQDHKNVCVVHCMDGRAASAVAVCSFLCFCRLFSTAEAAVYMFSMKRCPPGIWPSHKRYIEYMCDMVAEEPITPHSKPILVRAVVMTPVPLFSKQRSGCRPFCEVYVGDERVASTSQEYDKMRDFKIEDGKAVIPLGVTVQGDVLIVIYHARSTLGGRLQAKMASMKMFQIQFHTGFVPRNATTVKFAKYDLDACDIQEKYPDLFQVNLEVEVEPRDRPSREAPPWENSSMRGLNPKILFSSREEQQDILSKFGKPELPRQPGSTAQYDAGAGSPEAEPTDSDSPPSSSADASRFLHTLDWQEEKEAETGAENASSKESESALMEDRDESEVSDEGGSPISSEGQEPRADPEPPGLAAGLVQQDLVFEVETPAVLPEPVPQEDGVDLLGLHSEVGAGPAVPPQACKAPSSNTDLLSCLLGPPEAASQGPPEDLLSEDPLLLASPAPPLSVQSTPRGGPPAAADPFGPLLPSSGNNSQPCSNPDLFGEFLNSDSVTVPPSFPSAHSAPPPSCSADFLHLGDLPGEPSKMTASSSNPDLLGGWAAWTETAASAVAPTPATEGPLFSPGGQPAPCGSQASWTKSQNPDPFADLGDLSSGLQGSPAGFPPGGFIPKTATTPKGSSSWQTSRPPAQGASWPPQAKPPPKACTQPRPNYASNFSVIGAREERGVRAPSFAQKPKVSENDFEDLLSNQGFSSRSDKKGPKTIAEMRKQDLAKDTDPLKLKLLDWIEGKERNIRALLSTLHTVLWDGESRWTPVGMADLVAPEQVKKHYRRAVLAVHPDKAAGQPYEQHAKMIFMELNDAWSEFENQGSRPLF

Cyclin-dependent kinase-like 2, sequence (Q92772 whole entry): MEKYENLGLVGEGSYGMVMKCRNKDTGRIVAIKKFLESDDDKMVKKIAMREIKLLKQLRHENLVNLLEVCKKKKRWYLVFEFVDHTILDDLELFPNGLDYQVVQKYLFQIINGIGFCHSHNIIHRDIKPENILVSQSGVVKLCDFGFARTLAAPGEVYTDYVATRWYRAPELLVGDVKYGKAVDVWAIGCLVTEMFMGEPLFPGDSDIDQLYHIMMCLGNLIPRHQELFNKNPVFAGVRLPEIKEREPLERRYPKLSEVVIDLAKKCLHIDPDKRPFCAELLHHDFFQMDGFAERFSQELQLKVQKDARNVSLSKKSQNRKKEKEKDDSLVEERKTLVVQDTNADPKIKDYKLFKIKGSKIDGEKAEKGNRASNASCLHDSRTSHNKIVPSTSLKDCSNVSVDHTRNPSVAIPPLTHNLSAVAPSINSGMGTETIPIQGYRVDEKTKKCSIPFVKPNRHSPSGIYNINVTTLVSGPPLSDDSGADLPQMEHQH
Tribbles homolog 2, sequence (Q92519 whole entry): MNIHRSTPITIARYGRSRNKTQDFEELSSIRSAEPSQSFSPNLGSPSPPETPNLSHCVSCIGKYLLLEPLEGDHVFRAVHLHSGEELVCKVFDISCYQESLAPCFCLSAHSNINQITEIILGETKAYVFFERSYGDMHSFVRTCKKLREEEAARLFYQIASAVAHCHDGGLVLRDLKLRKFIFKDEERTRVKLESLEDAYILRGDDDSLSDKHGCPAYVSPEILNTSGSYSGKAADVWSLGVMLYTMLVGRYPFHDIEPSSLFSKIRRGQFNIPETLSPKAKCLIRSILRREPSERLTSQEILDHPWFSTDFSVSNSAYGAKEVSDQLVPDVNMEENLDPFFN
Cyclin-dependent kinase-like 5, sequence (O76039 whole entry): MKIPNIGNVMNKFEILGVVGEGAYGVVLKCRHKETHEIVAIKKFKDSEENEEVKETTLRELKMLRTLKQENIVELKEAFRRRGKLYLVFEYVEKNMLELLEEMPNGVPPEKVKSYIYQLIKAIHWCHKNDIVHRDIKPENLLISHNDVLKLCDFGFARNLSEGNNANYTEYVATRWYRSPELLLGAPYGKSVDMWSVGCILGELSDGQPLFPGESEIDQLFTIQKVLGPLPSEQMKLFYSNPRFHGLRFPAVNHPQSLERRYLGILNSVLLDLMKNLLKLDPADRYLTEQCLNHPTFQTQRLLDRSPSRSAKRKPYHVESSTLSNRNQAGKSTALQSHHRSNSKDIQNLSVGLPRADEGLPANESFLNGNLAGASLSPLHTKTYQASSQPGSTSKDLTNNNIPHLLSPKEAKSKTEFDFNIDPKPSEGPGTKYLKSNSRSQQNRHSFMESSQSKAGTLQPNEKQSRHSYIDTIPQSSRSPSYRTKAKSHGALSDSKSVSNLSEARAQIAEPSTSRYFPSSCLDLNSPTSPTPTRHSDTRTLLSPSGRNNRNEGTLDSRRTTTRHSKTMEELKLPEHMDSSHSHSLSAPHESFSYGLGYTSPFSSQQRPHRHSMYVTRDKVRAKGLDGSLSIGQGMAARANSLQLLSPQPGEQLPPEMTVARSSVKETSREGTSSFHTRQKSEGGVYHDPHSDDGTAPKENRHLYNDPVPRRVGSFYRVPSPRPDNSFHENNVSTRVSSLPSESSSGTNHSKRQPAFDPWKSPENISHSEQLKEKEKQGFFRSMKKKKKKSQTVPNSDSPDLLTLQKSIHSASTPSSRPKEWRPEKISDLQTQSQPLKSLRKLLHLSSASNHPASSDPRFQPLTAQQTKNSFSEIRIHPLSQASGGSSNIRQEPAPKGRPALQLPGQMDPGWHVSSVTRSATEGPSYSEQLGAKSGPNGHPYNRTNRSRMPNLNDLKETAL
Myotonin-protein kinase, sequence (Q09013 whole entry): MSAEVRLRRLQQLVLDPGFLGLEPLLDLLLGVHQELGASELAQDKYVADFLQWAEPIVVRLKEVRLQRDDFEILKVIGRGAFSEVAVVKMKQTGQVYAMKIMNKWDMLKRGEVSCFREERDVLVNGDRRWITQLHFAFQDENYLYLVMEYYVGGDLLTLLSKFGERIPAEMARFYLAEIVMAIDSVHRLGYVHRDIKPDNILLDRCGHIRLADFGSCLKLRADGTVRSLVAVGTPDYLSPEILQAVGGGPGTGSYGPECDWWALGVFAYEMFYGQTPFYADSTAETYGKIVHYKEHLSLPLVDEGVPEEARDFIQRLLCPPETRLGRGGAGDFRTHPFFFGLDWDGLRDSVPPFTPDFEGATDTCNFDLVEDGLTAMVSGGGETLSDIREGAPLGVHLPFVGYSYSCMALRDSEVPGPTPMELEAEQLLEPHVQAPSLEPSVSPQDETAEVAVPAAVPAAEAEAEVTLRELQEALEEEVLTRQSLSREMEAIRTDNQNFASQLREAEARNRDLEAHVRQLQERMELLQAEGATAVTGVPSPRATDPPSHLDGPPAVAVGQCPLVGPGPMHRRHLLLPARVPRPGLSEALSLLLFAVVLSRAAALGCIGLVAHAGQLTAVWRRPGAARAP
Myotonin-protein kinase (Homo sapiens), sequence (Q09013 whole entry): as above
BMP-2-inducible protein kinase (Homo sapiens), sequence (Q9NSY1 whole entry, looked up): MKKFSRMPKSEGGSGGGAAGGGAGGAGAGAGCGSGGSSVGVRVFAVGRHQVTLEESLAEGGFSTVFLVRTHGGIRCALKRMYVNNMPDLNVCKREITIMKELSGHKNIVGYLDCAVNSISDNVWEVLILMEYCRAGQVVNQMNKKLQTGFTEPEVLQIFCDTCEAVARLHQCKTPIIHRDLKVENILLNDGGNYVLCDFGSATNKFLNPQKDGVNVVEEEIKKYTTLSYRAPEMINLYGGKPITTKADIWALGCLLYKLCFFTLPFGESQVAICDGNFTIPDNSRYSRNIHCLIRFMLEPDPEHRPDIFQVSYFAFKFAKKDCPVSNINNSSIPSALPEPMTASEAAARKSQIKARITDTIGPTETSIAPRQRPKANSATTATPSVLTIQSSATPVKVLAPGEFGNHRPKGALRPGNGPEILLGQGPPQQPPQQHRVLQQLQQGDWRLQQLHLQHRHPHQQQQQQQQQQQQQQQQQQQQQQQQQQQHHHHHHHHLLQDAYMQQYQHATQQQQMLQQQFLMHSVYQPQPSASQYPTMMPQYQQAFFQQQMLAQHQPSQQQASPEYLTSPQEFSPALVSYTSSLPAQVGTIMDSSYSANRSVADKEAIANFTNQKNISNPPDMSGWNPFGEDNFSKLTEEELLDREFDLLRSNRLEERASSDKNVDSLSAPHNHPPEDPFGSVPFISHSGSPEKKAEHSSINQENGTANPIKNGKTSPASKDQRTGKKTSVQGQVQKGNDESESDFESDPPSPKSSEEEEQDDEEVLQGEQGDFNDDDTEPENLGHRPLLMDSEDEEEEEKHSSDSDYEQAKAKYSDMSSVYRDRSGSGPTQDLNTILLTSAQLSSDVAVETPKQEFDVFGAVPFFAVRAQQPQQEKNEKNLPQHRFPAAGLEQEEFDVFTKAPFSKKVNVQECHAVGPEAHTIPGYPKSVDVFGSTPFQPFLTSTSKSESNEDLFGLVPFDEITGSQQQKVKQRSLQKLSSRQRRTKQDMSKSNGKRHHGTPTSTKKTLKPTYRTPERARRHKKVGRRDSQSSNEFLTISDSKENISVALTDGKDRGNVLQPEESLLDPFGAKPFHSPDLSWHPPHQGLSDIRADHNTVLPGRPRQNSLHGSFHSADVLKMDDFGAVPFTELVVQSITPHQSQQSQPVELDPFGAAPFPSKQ

pIC50 [1]: < 6.00
ΔTm [2]: 6 °C
ΔTm [3]: 4 °C
ΔTm [4]: -1.2 °C
pIC50 [5]: < 6.00
ΔTm [7]: 3 °C
ΔTm [8]: 1.7 °C
ΔTm [9]: 0.3 °C
pIC50 [10]: < 5.00
pIC50 (Myotonin-protein kinase): < 6.00
pIC50 [11]: < 6.00
pIC50 [12]: < 5.00
pIC50 [13]: < 6.00
pIC50 [14]: < 5.00
ΔTm [15]: 1.1 °C
ΔTm [16]: 0.6 °C
pIC50 (Tribbles homolog 2): < 6.00
pIC50 [17]: < 5.00
pIC50 [18]: < 5.00
IC50 [19]: Not Active
pIC50 [20]: < 5.00
ΔTm [21]: 2.1 °C
pIC50 [22]: < 5.00
pIC50 [23]: < 6.00
pIC50 [24]: < 6.00
ΔTm [25]: 1.4 °C
pIC50 [26]: < 5.00
pIC50 [27]: < 6.00
ΔTm [28]: 1.4 °C
ΔTm [29]: 3.5 °C
SMILES: COC[C@@H](CC(C)C)NC1=N/C(=C\c2ccc3scnc3c2)C(=O)N1
ΔTm [6]: 1.2 °C
